Experimental data reported in patent publication US20080063601A1, “Compositions and methods relating to polycystic kidney disease” (priority 2004, published 2008).

Legend:
HeLa cells [1] = assay: [3H]-triptolide competition binding in intact HeLa cells; conditions: for displacement of / competition for [3H]-triptolide binding: 1 or 10 μM unlabeled competitor for 1 h before approx. 30 nM [3H]-triptolide for 1 h
Description: To gain insight into triptolide's mechanism of action Applicant sought to determine its specific binding activity utilizing a system employing [^3H]-triptolide. In addition to competition with 1 μM or 10 μM unlabeled triptolide, Applicant also measured the binding affinities of triptolide analogs (FIG. 3A). These analogs have been previously described and differ structurally from triptolide in the hydrolysis of the 12,13 epoxide (2), and formation of the ketone at the C-14 hydroxyl (3) (FIG. 3A). […] The effective interaction of these analogs with a presumed triptolide binding entity led us to their use in subsequent experiments addressing the mode of triptolide's biological functions.
Labeling studies were performed by the addition of approximately 30 nM [^3H]-triptolide directly into the culture media for one hour at 37° C. For cold competition studies, 1 μM triptolide was incubated with the cells for one hour before or after the addition of [^3H]-triptolide. Triptolide analog studies followed a similar protocol where concentrations used for competition were either 1 or 10 μM added before [^3H]-triptolide. Medium was removed and cells were washed 3× in cold PBS. Total cell lysates were prepared (150 mM NaCl, 50 mM Tris-HCl pH 7.4, 1 mM EDTA, 1% Triton X-100, and Complete™ protease inhibitors (Roche)) and protein was quantitated before measuring the [^3H]-triptolide binding activity via liquid scintillation.

HeLa cells [2] = assay: HeLa cell viability by trypan blue dye exclusion; assay type: cell-based
Description: Since extracellular calcium concentration can influence triptolide binding Applicant sought to determine if the presence of calcium influences the rate of triptolide-mediated apoptosis. To first establish the growth rate of HeLa in media±calcium, cell counts were performed over a 72 hour time course. Although calcium-free media caused cells to detach more easily, the overall growth rates were similar where cell doubling occurred every 24 hours on average (FIG. 5B). For triptolide experiments, cells were initially equilibrated in medium±calcium for 16 hours before the addition of 100 nM triptolide. Cell death was assessed by trypan blue dye exclusion at 24, 48, and 72 hours post drug treatment. In the presence of calcium-containing medium, triptolide induced at least 50% cell death by 24 hours with this trend continuing through later time points (FIG. 5C).
Applicant's results have implicated reversible binding of triptolide to a potential binding protein or complex that can be regulated by calcium. To understand if triptolide function is further separable between cell death and NFκB inhibition, Applicant examined the effect of concentration on these two endpoints. HeLa cells were cultured in the presence of 0, 10, 25, 50, or 100 nM of triptolide and separately assessed for cell death or the ability to suppress NFκB transactivation promoted by TNF-α. Following 24-48 hours of culture, viable cells were recovered and counted. Following 24 hours, triptolide concentrations from 25-100 nM caused greater than 50% of the cells to undergo cell death as assessed by detachment, clumping and the failure to exclude trypan blue dye. […] This is consistent with previous studies showing that low doses of triptolide cause cell cycle arrest rather than apoptosis (Kiviharju, et al., 2002, Clin Cancer Res 8, 2666-2674).
Based upon Applicant's studies examining the concentration dependent effect of triptolide on the two measured biological endpoints, cell death and transcriptional repression, Applicant wanted to determine how modulating triptolide's structure may also discriminate between the two pathways. For cell viability assays, HeLa cells were incubated with 0, 0.1, 1, or 10 μM of each analog or triptolide for 24 hours and then counted using trypan blue dye exclusion. […] NFκB transcriptional inhibition was measured using the κB-luciferase assay as previously described following 5 hours of incubation with each analog (0-10 μM) and TNF-α addition.
HeLa cells were incubated in DMEM or SMEM (Gibco) media+10% FBS and maintained at 37° C. in 5% CO2 for all experiments. HeLa cell viability was assessed by trypan blue dye exclusion, as well as by morphological examination (non-viable cells were rounded and detached from culture plate).

NFκB transactivation = assay: κB-luciferase reporter assay of TNF-α induced NFκB transactivation in HeLa cells; assay type: cell-based
Description: Having established that triptolide induced cell death is dependent upon free calcium concentration, Applicant next determined whether this was also a requirement for the inhibition of NFκB transcription. HeLa cells were transiently transfected with the κB-luciferase reporter construct for 8 hours before being washed and then cultured in the presence or absence of calcium containing medium for 16 hours. Triptolide (100 nM) was pre-incubated with cells for 1 hour before addition of 15 ng/ml of TNF-α for 4 hours.
As an additional experiment, transcriptional activity was also assessed by site-directed calcium buffering. HeLa cells were co-transfected with the κB-luciferase plasmid as well as one of the following constructs: GFP empty vector, NES-PV-GFP, or NLS-PV-GFP and proper GFP localization was confirmed. […]
NFκB transactivation was examined using the κB-luciferase reporter construct. […] Cells were assessed for NFκB driven luciferase expression after an additional five hours of incubation, at which time TNF-α had induced transcriptional activity by approximately 15-fold in control cells. […] The results thus far support a divergence of triptolide-mediated functions: the pathway regulating growth arrest/death is more sensitive to triptolide and calcium than the mechanism leading to transcriptional repression of NFκB.
A triple κB promoter-Luciferase reporter construct was a gift of Sankar Ghosh (Yale University). […] The transfection efficiency of HeLa was determined to be 80-90%, and all samples were normalized to protein concentration. Luciferase assays were performed using the Firefly luciferase kit as per manufacturer's protocol (Promega) and results obtained on the Wallac Victor2 1420 Multilabel Counter (Perkin Elmer).

| SMILES | displacement of / competition for [3H]-triptolide binding (HeLa cells [1]) | cell viability versus untreated control (HeLa cells [2]; 0.1 μM, 24 hours) | effect on continued cell growth (HeLa cells [2]; 0.1 μM, out to 72 hours) | cell death (HeLa cells [2]; 1 μM, 24 hours) | effect on NFκB transcriptional activity (NFκB transactivation; 1 μM, 5 hours with TNF-α) | competitive ability for [3H]-triptolide binding compared with triptolide (HeLa cells [1]; 1 μM competitor) | effect on cells at low concentration (HeLa cells [2]; 25 nM) | profile of cell death compared with triptolide (HeLa cells [2]; 0.1-10 μM, 24 hours) | profile of transcriptional repression (NFκB) compared with triptolide (NFκB transactivation; 0.1-10 μM, 5 hours) |
| --- | --- | --- | --- | --- | --- | --- | --- | --- | --- |
| CC(C)C1(O)C(O)C2OC23C2(C)CCC4=C(COC4=O)C2CC2OC23C1O (stereo not shown) [analog (2), Triol-Triptolide] | efficiently competes | not different from the untreated control | overall growth suppressive effect | greater than 50% | no effect |  |  |  |  |
| CC(C)[C@]12O[C@H]1[C@@H]1O[C@@]13[C@@]1(C)CCC4=C(COC4=O)[C@@H]1C[C@@H]1O[C@@]13C2=O [analog (3), Triptonide] | near complete |  |  |  |  | higher competitive ability than triptolide itself | only a growth suppressive effect | mimicked triptolide with no significant difference | mimicked triptolide with no significant difference |
